Assay results reported in ChEMBL document CHEMBL1201862, “PubChem BioAssay data set” (2004).
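Step 1: Grow cells in 96-well plates. Step 2: Expose to compound for 48 hours at 5 concentrations. Step 3: Interpolate endpoints linearly; if unreached, use highest concentration. GI50 marks 50% less growth.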 Activity calls are given as the source filed them. No stated cut-off is given here; in the data, active = GI50 up to about 1.1 µM and inactive = higher.

Columns and labels:
Test in all cases: DTP human tumour cell line panel, 48 h
T47D = tested on: T47D
CCRF-CEM = tested on: CCRF-CEM
OVCAR-4 = tested on: OVCAR-4
K562 = tested on: K562
KM12 = tested on: KM12
HCT-15 = tested on: HCT-15
COLO 205 = tested on: COLO 205
SK-OV-3 = tested on: SK-OV-3
NCI/ADR-RES = tested on: NCI/ADR-RES
Hs-578T = tested on: Hs-578T
EKVX = tested on: EKVX
IGROV-1 = tested on: IGROV-1
SNB-19 = tested on: SNB-19
SK-MEL-2 = tested on: SK-MEL-2
SK-MEL-5 = tested on: SK-MEL-5
ACHN = tested on: ACHN
A549 = tested on: A549
RXF 393 = tested on: RXF 393
BT-549 = tested on: BT-549

Structure (SMILES) | GI50 (T47D) | GI50 (CCRF-CEM) | GI50 (OVCAR-4) | GI50 (K562) | GI50 (KM12) | GI50 (HCT-15) [µM] | GI50 (COLO 205) | GI50 (SK-OV-3) | GI50 (NCI/ADR-RES) | GI50 (Hs-578T) | GI50 (EKVX) | GI50 (IGROV-1) | GI50 (SNB-19) | GI50 (SK-MEL-2) | GI50 (SK-MEL-5) | GI50 (ACHN) | GI50 (A549) | GI50 (RXF 393) | GI50 (BT-549)
CC(=O)O[C@@H]1CN(S(=O)(=O)c2ccc(C)cc2)C[C@@H]1C1CCCCC1 | 31.8 µM (inactive) | 37.8 µM (inactive) | 50.6 µM (inactive) | 45.7 µM (inactive) | 16.1 µM (inactive) | 32.6 | 18.5 µM (inactive) | 62.2 µM (inactive) | 20.6 µM (inactive) | 11.5 µM (inactive) | 19.9 µM (inactive) | 17.3 µM (inactive) | 54.8 µM (inactive) | 17 µM (inactive) | 19.2 µM (inactive) | 37.5 µM (inactive) | – | – | –
CC1(C)CC[C@]2(C(=O)O)CC[C@]3(C)C(=CC[C@@H]4[C@@]5(C)CC[C@@H]6OC(C)(C)OC[C@@]6(C)[C@@H]5CC[C@]43C)[C@H]2C1 | 13.9 µM (inactive) | 15.4 µM (inactive) | 3.05 µM (inactive) | 14.9 µM (inactive) | – | 2.87 | 11.3 µM (inactive) | 17.1 µM (inactive) | 16.9 µM (inactive) | – | 5.08 µM (inactive) | 11.4 µM (inactive) | 17.6 µM (inactive) | 17.3 µM (inactive) | – | 3.24 µM (inactive) | – | – | –
Cc1cccc(CNNC(=O)c2cc[n+]([BH2-]C#N)cc2)c1 | – | 23.9 µM (inactive) | 42 µM (inactive) | 26.9 µM (inactive) | 22.6 µM (inactive) | 21.4 | 16.5 µM (inactive) | 43.6 µM (inactive) | 24.7 µM (inactive) | 21.6 µM (inactive) | 36.4 µM (inactive) | 22 µM (inactive) | 48.2 µM (inactive) | 34.9 µM (inactive) | 17.2 µM (inactive) | 42.6 µM (inactive) | 39.1 µM (inactive) | 22.4 µM (inactive) | 42.5 µM (inactive)
COc1cc(C2SCC(=O)N2c2ccccc2Cl)cc(OC)c1OC (stereo not given) | – | 80.4 µM (inactive) | > 100 µM (inactive) | > 100 µM (inactive) | 47.2 µM (inactive) | > 100 | > 100 µM (inactive) | > 100 µM (inactive) | 88.5 µM (inactive) | > 100 µM (inactive) | > 100 µM (inactive) | > 100 µM (inactive) | 79.3 µM (inactive) | > 100 µM (inactive) | 92 µM (inactive) | > 100 µM (inactive) | > 100 µM (inactive) | – | 54 µM (inactive)
C=C[C@H]1CC[C@H]2[C@@H]3CC=C4C[C@@H](OC5OCC(O)C(O)C5O)CC[C@]4(C)[C@H]3CC[C@]12C (stereo not given in full) | 14.3 µM (inactive) | 24.8 µM (inactive) | – | 25.8 µM (inactive) | 12.9 µM (inactive) | 25.5 | 21.7 µM (inactive) | 12.9 µM (inactive) | 15.9 µM (inactive) | 17.1 µM (inactive) | – | 10 µM (inactive) | 25.7 µM (inactive) | 16.6 µM (inactive) | 18.2 µM (inactive) | 2.83 µM (inactive) | 12.9 µM (inactive) | – | –
CCOC(=O)C1=C(O)C(=O)c2ccoc2C1=O | – | > 100 µM (inactive) | > 100 µM (inactive) | > 100 µM (inactive) | > 100 µM (inactive) | > 100 | > 100 µM (inactive) | > 100 µM (inactive) | – | – | > 100 µM (inactive) | > 100 µM (inactive) | > 100 µM (inactive) | > 100 µM (inactive) | > 100 µM (inactive) | > 100 µM (inactive) | > 100 µM (inactive) | > 100 µM (inactive) | –
CC(=O)Oc1cc2oc(=O)cc(C)c2cc1OC(C)=O | – | 16.7 µM (inactive) | 85.7 µM (inactive) | 55.7 µM (inactive) | 68.7 µM (inactive) | 38.5 | 48 µM (inactive) | > 100 µM (inactive) | 32.4 µM (inactive) | 68.4 µM (inactive) | 52.5 µM (inactive) | 27.9 µM (inactive) | > 100 µM (inactive) | > 100 µM (inactive) | > 100 µM (inactive) | 42.2 µM (inactive) | 37.3 µM (inactive) | – | –
C=CCn1c(=O)c(C(=O)Nc2nc(C34CC5CC(CC(C5)C3)C4)cs2)c(O)c2ccccc21 | – | 37.3 µM (inactive) | 39.2 µM (inactive) | 15.1 µM (inactive) | 30.1 µM (inactive) | 21.5 | 18.1 µM (inactive) | – | 15 µM (inactive) | 32.4 µM (inactive) | 30.5 µM (inactive) | 33.1 µM (inactive) | 53.6 µM (inactive) | – | 34.4 µM (inactive) | 29.5 µM (inactive) | 18.2 µM (inactive) | 31.6 µM (inactive) | 24.4 µM (inactive)
CC(C)CCc1n[nH]c(=O)n1/N=C\c1ccccc1 | > 100 µM (inactive) | > 100 µM (inactive) | > 100 µM (inactive) | 83 µM (inactive) | > 100 µM (inactive) | > 100 | > 100 µM (inactive) | > 100 µM (inactive) | 57.4 µM (inactive) | > 100 µM (inactive) | > 100 µM (inactive) | > 100 µM (inactive) | > 100 µM (inactive) | 93.1 µM (inactive) | > 100 µM (inactive) | > 100 µM (inactive) | > 100 µM (inactive) | > 100 µM (inactive) | –
CC(C)OC(=O)C1=C2c3ncccc3C(=O)N2[C@@H](Cl)[C@@H](Cl)[C@@H]1Cl | – | – | > 100 µM (inactive) | 33.4 µM (inactive) | > 100 µM (inactive) | > 100 | > 100 µM (inactive) | – | > 100 µM (inactive) | 81.5 µM (inactive) | > 100 µM (inactive) | 96.4 µM (inactive) | > 100 µM (inactive) | > 100 µM (inactive) | > 100 µM (inactive) | > 100 µM (inactive) | > 100 µM (inactive) | > 100 µM (inactive) | > 100 µM (inactive)
CCOC(=O)CCC(NC(=O)c1ccc(Oc2nc3ccccc3nc2-c2ccccc2)cc1)C(=O)OCC (stereo not given) | > 29.8 µM (inactive) | > 100 µM (inactive) | 6.55 µM (inactive) | > 60.4 µM (inactive) | 33.3 µM (inactive) | > 100 | > 100 µM (inactive) | 27.9 µM (inactive) | 6.34 µM (inactive) | 7.08 µM (inactive) | 57.9 µM (inactive) | 35.4 µM (inactive) | 22 µM (inactive) | 31.5 µM (inactive) | > 100 µM (inactive) | 7.35 µM (inactive) | 37.8 µM (inactive) | 20.1 µM (inactive) | –
O=C(Cn1c(=O)oc2ccccc21)N(c1ccccc1)c1ccccc1 | – | > 100 µM (inactive) | – | > 100 µM (inactive) | > 100 µM (inactive) | > 100 | > 100 µM (inactive) | > 100 µM (inactive) | 77.6 µM (inactive) | 40.9 µM (inactive) | 11.9 µM (inactive) | 26.5 µM (inactive) | > 100 µM (inactive) | > 100 µM (inactive) | > 100 µM (inactive) | > 100 µM (inactive) | – | > 100 µM (inactive) | > 100 µM (inactive)
COc1cc2ccc(/C(C)=N/OC(C)=O)cc2cc1OC | – | 66.5 µM (inactive) | > 100 µM (inactive) | 94 µM (inactive) | > 100 µM (inactive) | > 100 | > 100 µM (inactive) | > 100 µM (inactive) | – | – | 3.58 µM (inactive) | > 100 µM (inactive) | > 100 µM (inactive) | 81.3 µM (inactive) | – | 65.3 µM (inactive) | > 100 µM (inactive) | 25.4 µM (inactive) | –
c1ccc2c3c([nH]c2c1)C1CCCN1CC3 (stereo not given) | > 10 µM (inactive) | > 10 µM (inactive) | > 10 µM (inactive) | > 10 µM (inactive) | > 10 µM (inactive) | > 10 | > 10 µM (inactive) | > 10 µM (inactive) | > 10 µM (inactive) | > 10 µM (inactive) | > 10 µM (inactive) | > 10 µM (inactive) | > 10 µM (inactive) | > 10 µM (inactive) | > 10 µM (inactive) | > 10 µM (inactive) | – | > 10 µM (inactive) | –
C[N+](C)=c1nc(N2CCOCC2)ss1 | – | > 100 µM (inactive) | – | > 100 µM (inactive) | > 100 µM (inactive) | > 100 | – | > 100 µM (inactive) | – | – | > 100 µM (inactive) | > 100 µM (inactive) | > 100 µM (inactive) | > 100 µM (inactive) | > 100 µM (inactive) | > 100 µM (inactive) | 47.3 µM (inactive) | > 100 µM (inactive) | –
COC(C(=O)NN)c1ccccc1 (stereo not given) | – | – | – | > 100 µM (inactive) | > 100 µM (inactive) | > 100 | – | > 100 µM (inactive) | > 100 µM (inactive) | > 100 µM (inactive) | > 100 µM (inactive) | > 100 µM (inactive) | > 100 µM (inactive) | > 100 µM (inactive) | > 100 µM (inactive) | > 100 µM (inactive) | > 100 µM (inactive) | > 100 µM (inactive) | > 100 µM (inactive)
O=C1CCCC2=C1CC1=C(CCCC1=O)N2c1ccc(Cl)cc1 | – | 69.7 µM (inactive) | > 100 µM (inactive) | > 100 µM (inactive) | > 100 µM (inactive) | > 100 | > 100 µM (inactive) | > 100 µM (inactive) | > 100 µM (inactive) | > 100 µM (inactive) | > 100 µM (inactive) | > 100 µM (inactive) | > 100 µM (inactive) | – | > 100 µM (inactive) | > 100 µM (inactive) | > 100 µM (inactive) | > 100 µM (inactive) | > 100 µM (inactive)
